{
  "source": "ChEMBL document CHEMBL1777713",
  "about": "“Ketonethiosemicarbazones: structure-activity relationships for their melanogenesis inhibition” (Bioorg Med Chem Lett, 2011)",
  "key": {"B16 [1]": {"test_system": "B16", "test": "Inhibition of alpha-MSH-induced melanin production in mouse B16 cells after 3 days", "type": "functional, cell-based", "conditions": "B16, 72 h"}, "B16 [2]": {"test_system": "B16", "test": "Inhibition of alpha-MSH-induced melanin production in mouse B16 cells at 10 uM after 3 days", "type": "functional", "conditions": "B16, 72 h"}},
  "data": [
    {"smiles": "Cc1ccc(C(C)NNC(N)=S)cc1", "note": "(centres undefined)", "values": [
      {"measurement": "IC50", "setting": "B16 [1]", "result": 8100, "unit": "nM"},
      {"measurement": "inhibition at 10 µM", "setting": "B16 [2]", "result": 61, "unit": "%"}
    ]},
    {"smiles": "C/C(=N\\NC(N)=S)c1cccs1", "values": [
      {"measurement": "IC50", "setting": "B16 [1]", "result": 6100, "unit": "nM"},
      {"measurement": "inhibition at 10 µM", "setting": "B16 [2]", "result": 82, "unit": "%"}
    ]},
    {"smiles": "CC/C(=N\\N=C(\\N)S)c1ccc(OC)cc1", "values": [
      {"measurement": "IC50", "setting": "B16 [1]", "result": 4000, "unit": "nM"},
      {"measurement": "inhibition at 10 µM", "setting": "B16 [2]", "result": "> 100", "unit": "%"}
    ]},
    {"smiles": "CC(C)/C(=N\\NC(N)=S)c1ccccc1", "values": [
      {"measurement": "IC50", "setting": "B16 [1]", "result": 3700, "unit": "nM"},
      {"measurement": "inhibition at 10 µM", "setting": "B16 [2]", "result": 96, "unit": "%"}
    ]},
    {"smiles": "COc1ccc(/C(C)=N/NC(N)=S)cc1", "values": [
      {"measurement": "IC50", "setting": "B16 [1]", "result": 2700, "unit": "nM"},
      {"measurement": "inhibition at 10 µM", "setting": "B16 [2]", "result": "> 100", "unit": "%"}
    ]},
    {"smiles": "CC/C(=N\\NC(=S)Nc1ccccc1)c1ccc(C)cc1", "values": [
      {"measurement": "IC50", "setting": "B16 [1]", "result": 790, "unit": "nM"},
      {"measurement": "inhibition at 10 µM", "setting": "B16 [2]", "result": "> 100", "unit": "%"}
    ]},
    {"smiles": "C/C(=N\\N=C(/N)S)c1ccccc1", "note": "[PHENYL(METHYL)THIOSEMICARBAZONE]", "values": [
      {"measurement": "IC50", "setting": "B16 [1]", "result": 2300, "unit": "nM"},
      {"measurement": "inhibition at 10 µM", "setting": "B16 [2]", "result": "> 100", "unit": "%"}
    ]},
    {"smiles": "NC(=S)N/N=C1\\CCCc2ccccc21", "values": [
      {"measurement": "IC50", "setting": "B16 [1]", "result": 2300, "unit": "nM"},
      {"measurement": "inhibition at 10 µM", "setting": "B16 [2]", "result": "> 100", "unit": "%"}
    ]},
    {"smiles": "NC(=S)NN=C(c1ccccc1)c1ccccc1", "note": "[BENZOPHENONE-THIOSEMICARBAZONE]", "values": [
      {"measurement": "IC50", "setting": "B16 [1]", "result": 4900, "unit": "nM"},
      {"measurement": "inhibition at 10 µM", "setting": "B16 [2]", "result": 97, "unit": "%"}
    ]},
    {"smiles": "CCNC(=S)N/N=C(\\CC)c1ccc(C)cc1", "values": [
      {"measurement": "IC50", "setting": "B16 [1]", "result": 1900, "unit": "nM"},
      {"measurement": "inhibition at 10 µM", "setting": "B16 [2]", "result": "> 100", "unit": "%"}
    ]},
    {"smiles": "CC/C(=N\\NC(N)=S)c1ccc(C)cc1", "values": [
      {"measurement": "IC50", "setting": "B16 [1]", "result": 2600, "unit": "nM"},
      {"measurement": "inhibition at 10 µM", "setting": "B16 [2]", "result": "> 100", "unit": "%"}
    ]},
    {"smiles": "C/C(=N\\NC(N)=S)c1ccc(C)cc1", "values": [
      {"measurement": "IC50", "setting": "B16 [1]", "result": 840, "unit": "nM"},
      {"measurement": "inhibition at 10 µM", "setting": "B16 [2]", "result": "> 100", "unit": "%"}
    ]},
    {"smiles": "CC/C(=N\\NC(=S)NC)c1ccc(C)cc1", "values": [
      {"measurement": "IC50", "setting": "B16 [1]", "result": 2000, "unit": "nM"},
      {"measurement": "inhibition at 10 µM", "setting": "B16 [2]", "result": "> 100", "unit": "%"}
    ]},
    {"smiles": "CC/C(=N\\N=C(\\N)S)c1ccc(Cl)cc1", "values": [
      {"measurement": "IC50", "setting": "B16 [1]", "result": 2900, "unit": "nM"},
      {"measurement": "inhibition at 10 µM", "setting": "B16 [2]", "result": "> 100", "unit": "%"}
    ]},
    {"smiles": "CC(NNC(N)=S)c1ccccc1", "note": "(centres undefined)", "values": [
      {"measurement": "IC50", "setting": "B16 [1]", "result": "> 30000", "unit": "nM"},
      {"measurement": "inhibition at 10 µM", "setting": "B16 [2]", "result": 36, "unit": "%"}
    ]},
    {"smiles": "CC/C(=N\\N=C(\\N)S)c1ccc(Br)cc1", "values": [
      {"measurement": "IC50", "setting": "B16 [1]", "result": 2000, "unit": "nM"},
      {"measurement": "inhibition at 10 µM", "setting": "B16 [2]", "result": "> 100", "unit": "%"}
    ]},
    {"smiles": "CCC(NNC(N)=S)c1ccc(C)cc1", "note": "(centres undefined)", "values": [
      {"measurement": "IC50", "setting": "B16 [1]", "result": 3900, "unit": "nM"},
      {"measurement": "inhibition at 10 µM", "setting": "B16 [2]", "result": "> 100", "unit": "%"}
    ]}
  ]
}
